Where two headings read alike, the source gives them in different places.
Key:
[1] = system: AP-1 induced transcriptional activity; assay: Cellular Transrepressional Assay (AP-1 luciferase reporter in A549 cells, PMA-activated); format: cell-based; conditions: A549 cells with 7x AP-1 luciferase reporter, 10 ng/ml PMA, read-out: AP-1 (EC50, nM) (Cellular Transrepression Assay)
Method in brief: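 Stable A549 AP-1 (7× sites) luciferase reporter line stimulated with 10 ng/ml PMA plus test molecules (0.1 nM to 40 μM) for 7 h. Luminescence read after 10 min with luciferase reagent; EC50 from % decrease of PMA-induced signal.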

[2] = target: T1, human full-length glucocorticoid receptor (Homo sapiens, UniProt P04150); assay: Glucocorticoid Receptor Binding Assay (II), fluorescence polarization competitor kit (Fluormone GS1); conditions: cell lysate with recombinant human full-length GR, 1 nM Fluormone GS1, FP
T1 construct: a cell lysate containing recombinantly expressed human full-length glucocorticoid receptor; purchased PanVera Co., Madison, Wis; P2816
T1 sequence (P04150 1-777): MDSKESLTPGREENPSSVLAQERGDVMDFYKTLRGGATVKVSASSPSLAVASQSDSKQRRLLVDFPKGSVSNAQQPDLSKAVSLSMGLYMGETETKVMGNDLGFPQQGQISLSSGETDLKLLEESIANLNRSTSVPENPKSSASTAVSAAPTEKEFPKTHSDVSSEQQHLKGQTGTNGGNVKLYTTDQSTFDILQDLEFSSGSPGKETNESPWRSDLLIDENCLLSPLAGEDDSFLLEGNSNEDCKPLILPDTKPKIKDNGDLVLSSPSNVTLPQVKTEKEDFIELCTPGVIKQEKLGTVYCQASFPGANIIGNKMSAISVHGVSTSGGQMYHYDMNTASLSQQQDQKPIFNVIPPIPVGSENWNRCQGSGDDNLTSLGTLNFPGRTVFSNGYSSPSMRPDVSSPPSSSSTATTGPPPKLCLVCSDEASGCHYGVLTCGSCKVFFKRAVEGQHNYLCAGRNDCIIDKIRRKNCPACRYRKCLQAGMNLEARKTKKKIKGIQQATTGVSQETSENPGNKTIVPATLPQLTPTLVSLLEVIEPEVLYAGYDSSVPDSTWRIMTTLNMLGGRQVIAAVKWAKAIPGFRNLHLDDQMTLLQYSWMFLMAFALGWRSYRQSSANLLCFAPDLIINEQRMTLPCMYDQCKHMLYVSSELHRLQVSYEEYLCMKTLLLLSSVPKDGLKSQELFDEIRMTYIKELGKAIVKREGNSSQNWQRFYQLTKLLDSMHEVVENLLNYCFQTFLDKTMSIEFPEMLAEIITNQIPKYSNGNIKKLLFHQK
Experimental: In order to measure the binding of compounds on the glucocorticoid receptor a commercially available kit was used (Glucocorticoid receptor competitor assay kit, PanVera Co., Madison, Wis., P2816). Briefly, a cell lysate containing recombinantly expressed human full-length glucocorticoid receptor was mixed with a fluorescently labeled glucocorticoid (1 nM Fluormone GS1) in the presence or absence of test compound. After one hour at room temperature, the fluorescence polarization (FP) of the samples were measured.

| SMILES | EC50 ([1]; Homo sapiens, A549, 7 h) | Ki [2] | EC50 ([1]; 7 hours) |
| --- | --- | --- | --- |
| CCC(CC)(C(=O)Nc1nncs1)C(c1ccccc1)c1ccc2c(cnn2-c2ccc(F)cc2)c1 (stereo not drawn) [Example 149, 2-ethyl-2-((1-(4-fluorophenyl)-1H-indazol-5-yl)(phenyl)methyl)-N-(1,3,4-thiadiazol-2-yl)butanamide] | 130 nM | 4.7 nM | – |
| CC(C)(C(=O)Nc1nncs1)C(c1cccc(F)c1)c1ccc2c(cnn2-c2ccc(F)cc2)c1 (stereo not drawn) [Example 52, 3-(3-fluorophenyl)-3-(1-(4-fluorophenyl)-1H-indazol-5-yl)-2,2-dimethyl-N-(1,3,4-thiadiazol-2-yl)propanamide] | 8.1 nM | 1.3 nM | – |
| CC(C)(C(=O)NC1CCCC1O)C(Cc1ccccc1)c1ccc2c(cnn2-c2ccc(F)cc2)c1 (single isomer, unassigned) [Example 124-isomerA] | – | 7.5 nM | > 10000 nM |
| CC(C)(C(=O)Nc1nccs1)C(Cc1ccccc1)c1ccc2c(cnn2-c2ccc(F)cc2)c1 (stereo not drawn) [Example 138, 3-(1-(4-Fluorophenyl)-1H-indazol-5-yl)-2,2-dimethyl-4-phenyl-N-(thiazol-2-yl)butanamide] | 223 nM | 1.9 nM | – |
| Cc1ccccc1C(c1ccc2c(cnn2-c2ccc(F)cc2)c1)C(C)(C)C(=O)Nc1nccs1 (stereo not drawn) [Example 40, 3-(1-(4-fluorophenyl)-1H-indazol-5-yl)-2,2-dimethyl-N-(thiazol-2-yl)-3-o-tolylpropanamide] | 2.1 nM | 1.6 nM | – |
| CC(=O)OCC(C)(C(=O)Nc1nncs1)C(c1ccccc1)c1ccc2c(cnn2-c2ccc(F)cc2)c1 (stereo not drawn) [Example 154, 3-(1,3,4-Thiadiazol-2-ylamino)-2-((1-(4-fluorophenyl)-1H-indazol-5-yl)(phenyl)methyl)-2-methyl-3-oxopropyl acetate] | 15 nM | 2.6 nM | – |
| CC(C)(C(=O)Nc1nncs1)C(OCc1ccccc1)c1ccc2c(cnn2-c2ccc(F)cc2)c1 (stereo not drawn) [Example 140, 3-(Benzyloxy)-3-(1-(4-fluorophenyl)-1H-indazol-5-yl)-2,2-dimethyl-N-(1,3,4-thiadiazol-2-yl)propanamide] | 4 nM | 1.6 nM | – |
| CC(C)(C(=O)Nc1nncs1)[C@@H](c1ccccc1)c1ccc2c(cnn2-c2ccc(F)cc2C(N)=O)c1 [Example 156, 2-(5-((S)-3-(1,3,4-Thiadiazol-2-ylamino)-2,2-dimethyl-3-oxo-1-phenylpropyl)-1H-indazol-1-yl)-5-fluorobenzamide] | 135 nM | 22 nM | – |
| O=C(Nc1nncs1)C(c1ccccc1)C(c1ccccc1)c1ccc2c(cnn2-c2ccc(F)cc2)c1 (single isomer, unassigned) [Example 145-isomerD, 3-(1-(4-fluorophenyl)-1H-indazol-5-yl)-2,3-diphenyl-N-(1,3,4-thiadiazol-2-yl)propanamide] | – | 2.4 nM | 45 nM |
| O=C(Nc1nncs1)C(Cc1ccccc1)C(c1ccccc1)c1ccc2c(cnn2-c2ccc(F)cc2)c1 (stereo not drawn) [Example 146, 2-benzyl-3-(1-(4-fluorophenyl)-1H-indazol-5-yl)-3-phenyl-N-(1,3,4-thiadiazol-2-yl)propanamide] | 2 nM | 1.5 nM | – |
| CC(C)(CC(=O)Nc1nccs1)c1ccc2c(cnn2-c2ccc(F)cc2)c1 [Example 114, 3-(1-(4-Fluorophenyl)-1H-indazol-5-yl)-3-methyl-N-(thiazol-2-yl)butanamide] | > 10000 nM | 11 nM | – |
| CC(C)(C(=O)NC1CCOCC1)C(Cc1ccccc1)c1ccc2c(cnn2-c2ccc(F)cc2)c1 (stereo not drawn) [Example 132, 3-(1-(4-fluorophenyl)-1H-indazol-5-yl)-2,2-dimethyl-4-phenyl-N-(tetrahydro-2H-pyran-4-yl)butanamide] | > 10000 nM | 7.8 nM | – |
| O=C(Nc1nncs1)C1(C(c2ccccc2)c2ccc3c(cnn3-c3ccc(F)cc3)c2)CCCCC1 (stereo not drawn) [Example 150, 1-((1-(4-fluorophenyl)-1H-indazol-5-yl)(phenyl)methyl)-N-(1,3,4-thiadiazol-2-yl)cyclohexanecarboxamide] | 13 nM | 4 nM | – |
| CC(C)(C(=O)Nc1nncs1)C(Cc1ccccc1)c1ccc2c(cnn2-c2ccc(F)cc2)c1 (stereo not drawn) [Example 123, 3-(1-(4-fluorophenyl)-1H-indazol-5-yl)-2,2-dimethyl-4-phenyl-N-(1,3,4-thiadiazol-2-yl)butanamide] | 705 nM | 1.1 nM | – |
| CC(C(=O)Nc1nncs1)C(c1ccccc1)c1ccc2[nH]ncc2c1 (single isomer, unassigned) [151-diast A, 3-(1H-Indazol-5-yl)-2-methyl-3-phenyl-N-(1,3,4-thiadiazol-2-yl)propanamide] | – | 1.6 nM | 9 nM |
| COc1cc(F)ccc1-n1ncc2cc([C@H](c3ccccc3)C(C)(C)C(=O)Nc3nncs3)ccc21 [Example 96, (3S)-3-(1-(4-fluoro-2-methoxyphenyl)-1H-indazol-5-yl)-2,2-dimethyl-3-phenyl-N-(1,3,4-thiadiazol-2-yl)propanamide] | 23 nM | 3.1 nM | – |
| O=C(Nc1nncs1)C(c1ccccc1)C(c1ccccc1)c1ccc2c(cnn2-c2ccc(F)cc2)c1 (single isomer, unassigned) [Example 145-isomerC, 3-(1-(4-fluorophenyl)-1H-indazol-5-yl)-2,3-diphenyl-N-(1,3,4-thiadiazol-2-yl)propanamide] | – | 555 nM | 5000 nM |
| CC(CO)(C(=O)Nc1nncs1)C(c1ccccc1)c1ccc2c(cnn2-c2ccc(F)cc2)c1 (stereo not drawn) [Example 155, 3-(1-(4-Fluorophenyl)-1H-indazol-5-yl)-2-(hydroxymethyl)-2-methyl-3-phenyl-N-(1,3,4-thiadiazol-2-yl)propanamide] | 1770 nM | 4.3 nM | – |
| CC(C)C(c1ccc2c(cnn2-c2ccc(F)cc2)c1)C(C)(C)C(=O)Nc1nncs1 (stereo not drawn) [Example 48, 3-(1-(4-fluorophenyl)-1H-indazol-5-yl)-2,2,4-trimethyl-N-(1,3,4-thiadiazol-2-yl)pentanamide] | 81 nM | 2.4 nM | – |
| O=C(Nc1nncs1)C(c1ccccc1)C(c1ccccc1)c1ccc2[nH]ncc2c1 (single isomer, unassigned) [152-diast B, 3-(1H-Indazol-5-yl)-2,3-diphenyl-N-(1,3,4-thiadiazol-2-yl)propanamide] | – | 1150 nM | 5000 nM |
| C=CCC(c1ccc2c(cnn2-c2ccc(F)cc2)c1)C(C)(C)C(=O)Nc1nncs1 (stereo not drawn) [Example 45, 3-(1-(4-fluorophenyl)-1H-indazol-5-yl)-2,2-dimethyl-N-(1,3,4-thiadazol-2-yl)hex-5-enamide] | 52 nM | 2.6 nM | – |
| CC(C)(C(=O)Nc1nccs1)C(c1cccc(F)c1)c1ccc2c(cnn2-c2ccc(F)cc2)c1 (stereo not drawn) [Example 43] | 2.4 nM | 2.9 nM | – |
| CC(C)(C(=O)Nc1nncs1)C1(c2ccc3c(cnn3-c3ccc(F)cc3)c2)CCCCC1 [Example 101, 2-(1-(1-(4-Fluorophenyl)-1H-indazol-5-yl)cyclohexyl)-2-methyl-N-(1,3,4-thiadiazol-2-yl)propanamide] | 36 nM | 1 nM | – |
| CC(C)(CO)CNC(=O)C(C)(C)C(Cc1ccccc1)c1ccc2c(cnn2-c2ccc(F)cc2)c1 (stereo not drawn) [Example 134, 3-(1-(4-fluorophenyl)-1H-indazol-5-yl)-N-(3-hydroxy-2,2-dimethylpropyl)-2,2-dimethyl-4-phenylbutanamide] | > 10000 nM | 6 nM | – |
| Cc1ccc(CC(c2ccc3c(cnn3-c3ccc(F)cc3)c2)C(C)(C)C(=O)Nc2nncs2)cc1 (stereo not drawn) [Example 127, 3-(1-(4-fluorophenyl)-1H-indazol-5-yl)-2,2-dimethyl-N-(1,3,4-thiadiazol-2-yl)-4-p-tolylbutanamide] | > 10000 nM | 3.8 nM | – |
| COC(=O)c1ccc(C(c2ccc3c(cnn3-c3ccc(F)cc3)c2)C(C)C(=O)Nc2nncs2)cc1 (stereo not drawn) [Example 153, Methyl 4-(3-(1,3,4-thiadiazol-2-ylamino)-1-(1-(4-fluorophenyl)-1H-indazol-5-yl)-2-methyl-3-oxopropyl)benzoate] | 27 nM | 4.3 nM | – |
| CC(C)(C(=O)NC1CCNCC1)C(Cc1ccccc1)c1ccc2c(cnn2-c2ccc(F)cc2)c1 (stereo not drawn) [Example 133, 3-(1-(4-fluorophenyl)-1H-indazol-5-yl)-2,2-dimethyl-4-phenyl-N-(piperidin-4-yl)butanamide] | > 10000 nM | 153 nM | – |

Source: US8067447B2, “Modulators of glucocorticoid receptor, AP-1, and/or NF-κB activity and use thereof” (Bristol-Myers Squibb Company, priority 2006, dated 2011)
